This is an account of results in US20120322829A1, “USE OF A DIPYRIDYL COMPOUND FOR TREATING ROSACEA” (GALDERMA RESEARCH & DEVELOPMENT, priority 2009, published 2012).

Assay type in all cases: biochemical
One experiment deals with MMP-14 (Homo sapiens, UniProt P50281). In words: MMP-14 activity. Particulars: 10 μM; remaining activity.
Experiment [1] addresses TACE (TNF-alpha converting enzyme) (Homo sapiens, UniProt P78536). Briefly: TACE activity, fluorometric detection of reaction product. The settings on record: 10 μM; human recombinant protein; remaining activity. On the procedure:
(§1) The activity of MMPs of MMP-1, MMP-2, MMP-9, MMP-12, MMP-13 and TACE was measured using human recombinant proteins. The activity of MMP-8 was measured in human neutrophiles. After incubation with the corresponding substrate, the reaction product of each MMP was detected by fluorometry. The results are expressed as specific control activity percentages ((specific activity measured/specific control activity)×100) obtained in the presence of the compounds tested.

The next experiment deals with MMP-9 (Homo sapiens, UniProt P14780). In words: MMP-9 activity, fluorometric detection of reaction product. The settings on record: 10 μM; human recombinant protein; remaining activity. Here is the method: as §1
The next experiment has as its target T1, MMP-1 (Homo sapiens, UniProt P03956).
T1 sequence (P03956 100-469): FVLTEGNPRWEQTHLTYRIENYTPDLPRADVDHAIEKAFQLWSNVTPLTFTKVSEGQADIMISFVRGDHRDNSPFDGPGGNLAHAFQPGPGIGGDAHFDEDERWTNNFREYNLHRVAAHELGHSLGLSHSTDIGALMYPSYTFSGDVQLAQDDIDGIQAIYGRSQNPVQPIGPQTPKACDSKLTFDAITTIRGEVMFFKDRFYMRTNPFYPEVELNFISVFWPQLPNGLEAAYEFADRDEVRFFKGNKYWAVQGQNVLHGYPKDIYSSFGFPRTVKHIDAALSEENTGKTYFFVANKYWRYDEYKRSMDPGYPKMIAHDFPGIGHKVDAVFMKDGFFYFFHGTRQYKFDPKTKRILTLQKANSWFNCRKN
In words: MMP-1 activity, fluorometric detection of reaction product. The settings on record: 10 μM; human recombinant protein; remaining activity. On the procedure:
as §1

The target in a further experiment is MMP-12 (Homo sapiens, UniProt P39900). In words: MMP-12 activity, fluorometric detection of reaction product. Particulars: 10 μM; human recombinant protein; remaining activity. Here is the method: as §1
The target in another experiment is MMP-13 (Homo sapiens, UniProt P45452). Briefly: MMP-13 activity, fluorometric detection of reaction product. The settings on record: 10 μM; human recombinant protein; remaining activity. On the procedure: as §1
A further experiment deals with T2, MMP-2 (Homo sapiens, UniProt P08253).
T2 sequence (P08253 110-660): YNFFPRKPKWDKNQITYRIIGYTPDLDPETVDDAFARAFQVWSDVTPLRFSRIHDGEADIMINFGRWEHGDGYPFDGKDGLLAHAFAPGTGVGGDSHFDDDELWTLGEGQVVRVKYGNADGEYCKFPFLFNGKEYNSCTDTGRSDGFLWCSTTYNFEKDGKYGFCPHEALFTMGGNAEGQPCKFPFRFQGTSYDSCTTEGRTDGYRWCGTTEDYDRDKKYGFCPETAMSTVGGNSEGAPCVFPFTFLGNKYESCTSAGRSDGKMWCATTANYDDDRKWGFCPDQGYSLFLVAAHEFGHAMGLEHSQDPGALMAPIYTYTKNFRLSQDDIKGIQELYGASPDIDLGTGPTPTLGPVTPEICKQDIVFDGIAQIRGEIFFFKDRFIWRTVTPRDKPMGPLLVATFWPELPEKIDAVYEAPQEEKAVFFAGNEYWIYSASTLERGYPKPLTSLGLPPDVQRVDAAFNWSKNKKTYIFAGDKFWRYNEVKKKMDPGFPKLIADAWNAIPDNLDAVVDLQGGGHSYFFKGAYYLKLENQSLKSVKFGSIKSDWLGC
In words: MMP-2 activity, fluorometric detection of reaction product. The settings on record: 10 μM; human recombinant protein; remaining activity. On the procedure:
as §1

For the next experiment, the target named is T3, MMP-8 (Homo sapiens, UniProt P22894).
T3 construct: endogenous in cells; host or cells: human neutrophils
In words: MMP-8 activity measured in human neutrophiles, fluorometry. The settings on record: 10 μM, remaining activity. On the procedure: as §1

T3 sequence (P22894 101-467): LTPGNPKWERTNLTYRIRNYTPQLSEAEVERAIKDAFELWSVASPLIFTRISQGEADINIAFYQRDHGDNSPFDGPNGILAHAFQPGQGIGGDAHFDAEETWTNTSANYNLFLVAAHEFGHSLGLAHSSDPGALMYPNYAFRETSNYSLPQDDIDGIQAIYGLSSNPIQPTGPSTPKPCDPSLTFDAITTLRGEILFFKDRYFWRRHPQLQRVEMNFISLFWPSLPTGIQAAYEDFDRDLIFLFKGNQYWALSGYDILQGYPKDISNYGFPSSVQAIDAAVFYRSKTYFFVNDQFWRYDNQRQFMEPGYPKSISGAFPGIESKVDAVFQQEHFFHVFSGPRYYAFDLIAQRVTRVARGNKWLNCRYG
MMP-12, sequence (P39900 106-470): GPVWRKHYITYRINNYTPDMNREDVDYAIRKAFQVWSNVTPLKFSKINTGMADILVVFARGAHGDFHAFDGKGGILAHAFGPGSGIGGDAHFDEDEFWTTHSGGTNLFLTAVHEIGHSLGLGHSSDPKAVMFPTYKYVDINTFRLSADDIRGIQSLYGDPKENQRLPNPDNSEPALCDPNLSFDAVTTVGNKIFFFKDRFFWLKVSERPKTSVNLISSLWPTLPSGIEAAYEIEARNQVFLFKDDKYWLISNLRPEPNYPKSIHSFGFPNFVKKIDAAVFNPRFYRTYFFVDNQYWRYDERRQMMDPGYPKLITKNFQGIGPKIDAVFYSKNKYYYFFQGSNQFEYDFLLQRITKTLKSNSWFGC
MMP-9, sequence (P14780 94-707): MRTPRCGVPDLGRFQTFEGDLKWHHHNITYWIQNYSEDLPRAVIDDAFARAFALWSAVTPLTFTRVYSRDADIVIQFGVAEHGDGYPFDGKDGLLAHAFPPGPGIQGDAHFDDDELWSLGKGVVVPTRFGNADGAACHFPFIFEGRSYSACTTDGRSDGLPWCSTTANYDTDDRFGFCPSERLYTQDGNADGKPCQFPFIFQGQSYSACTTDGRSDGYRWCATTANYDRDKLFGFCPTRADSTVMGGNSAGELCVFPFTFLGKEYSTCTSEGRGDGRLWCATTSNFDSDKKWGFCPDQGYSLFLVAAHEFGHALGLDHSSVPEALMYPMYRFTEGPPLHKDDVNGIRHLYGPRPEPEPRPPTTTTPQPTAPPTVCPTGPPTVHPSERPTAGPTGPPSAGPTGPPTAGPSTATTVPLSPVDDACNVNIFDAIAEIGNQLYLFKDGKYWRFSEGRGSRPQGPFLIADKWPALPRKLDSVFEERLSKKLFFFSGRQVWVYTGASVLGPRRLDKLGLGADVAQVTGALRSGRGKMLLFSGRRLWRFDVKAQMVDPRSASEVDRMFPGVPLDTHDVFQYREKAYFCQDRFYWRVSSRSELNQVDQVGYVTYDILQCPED
TACE (TNF-alpha converting enzyme), sequence (P78536 215-824): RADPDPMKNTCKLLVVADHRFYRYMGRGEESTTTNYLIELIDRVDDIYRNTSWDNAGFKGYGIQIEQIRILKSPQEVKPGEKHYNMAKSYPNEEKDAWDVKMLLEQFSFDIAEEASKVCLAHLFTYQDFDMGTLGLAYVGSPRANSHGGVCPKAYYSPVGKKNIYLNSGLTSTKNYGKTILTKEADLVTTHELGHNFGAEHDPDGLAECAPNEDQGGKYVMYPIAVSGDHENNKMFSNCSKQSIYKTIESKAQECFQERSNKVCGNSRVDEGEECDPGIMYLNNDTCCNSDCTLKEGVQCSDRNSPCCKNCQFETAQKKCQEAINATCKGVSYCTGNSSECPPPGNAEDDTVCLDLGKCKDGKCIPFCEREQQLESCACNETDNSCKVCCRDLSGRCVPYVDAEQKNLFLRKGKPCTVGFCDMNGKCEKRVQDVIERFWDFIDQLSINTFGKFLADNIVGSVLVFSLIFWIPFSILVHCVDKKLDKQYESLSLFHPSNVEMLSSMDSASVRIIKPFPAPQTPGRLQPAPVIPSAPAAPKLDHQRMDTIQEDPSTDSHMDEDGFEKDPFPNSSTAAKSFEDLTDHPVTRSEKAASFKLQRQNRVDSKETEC

With `Cc1ccc(-c2ccc(C)cn2)nc1` [5,5′-dimethyl-2,2′-dipyridyl], the “MMP activity (% of control values ± SD), MMP-14” value on MMP-14 was 90.2 ± 4.1 % of control values. Moreover, in experiment [1], the “MMP activity (% of control values ± SD), TACE” value is recorded as 100.8 ± 2.1 % of control values. In addition, the “MMP activity (% of control values ± SD), MMP-9” value at MMP-9 is recorded as 86.0 ± 3.4 % of control values. Further, on MMP-1, the “MMP activity (% of control values ± SD), MMP-1” value is on record as 96.1 ± 0.3 % of control values. The “MMP activity (% of control values ± SD), MMP-12” value on MMP-12 is 93.4 ± 0.4 % of control values. Besides, the “MMP activity (% of control values ± SD), MMP-13” value on MMP-13 is reported as 89.4 ± 1.2 % of control values. For the same compound, on MMP-2, the “MMP activity (% of control values ± SD), MMP-2” value is given as 86.4 ± 2.2 % of control values. Besides, the “MMP activity (% of control values ± SD), MMP-8” value at MMP-8 was 88.3 ± 6.7 % of control values.
Consider `Cc1ccnc(-c2cc(C)ccn2)c1` [4,4′-dimethyl-2,2′-dipyridyl], for which the “MMP activity (% of control values ± SD), MMP-14” value on MMP-14 is on record as 90.8 ± 4.7 % of control values. Besides, the “MMP activity (% of control values ± SD), TACE” value in experiment [1] is 106.4 ± 1.2 % of control values. Moreover, the “MMP activity (% of control values ± SD), MMP-9” value at MMP-9 is 88.5 ± 3.4 % of control values. The “MMP activity (% of control values ± SD), MMP-1” value at MMP-1 is on record as 94.3 ± 0.1 % of control values. For the same compound, at MMP-12, the “MMP activity (% of control values ± SD), MMP-12” value is on record as 96.3 ± 1.0 % of control values. Further, the “MMP activity (% of control values ± SD), MMP-13” value at MMP-13 is given as 90.0 ± 4.1 % of control values. The “MMP activity (% of control values ± SD), MMP-2” value at MMP-2 was 100.8 ± 6.0 % of control values. For the same compound, at MMP-8, the “MMP activity (% of control values ± SD), MMP-8” value is reported as 86.5 ± 7.4 % of control values.
Take `Cc1cccc(-c2cccc(C)n2)n1` [6,6′-dimethyl-2,2′-dipyridyl]: the “MMP activity (% of control values ± SD), MMP-14” value at MMP-14 is 84.3 ± 3.0 % of control values. Further, the “MMP activity (% of control values ± SD), TACE” value in experiment [1] was 100.3 ± 0.2 % of control values. In addition, at MMP-9, the “MMP activity (% of control values ± SD), MMP-9” value is listed as 101.0 ± 3.3 % of control values. Also, at MMP-1, the “MMP activity (% of control values ± SD), MMP-1” value was 98.8 ± 0.7 % of control values. The “MMP activity (% of control values ± SD), MMP-12” value on MMP-12 is 96.3 ± 1.0 % of control values. In addition, the “MMP activity (% of control values ± SD), MMP-13” value at MMP-13 is listed as 96.2 ± 2.6 % of control values. For the same compound, at MMP-2, the “MMP activity (% of control values ± SD), MMP-2” value is recorded as 95.9 ± 7.5 % of control values. On MMP-8, the “MMP activity (% of control values ± SD), MMP-8” value is recorded as 95.0 ± 6.5 % of control values.
